According to patent US20080254993A1, “Use of abscisic acid analogs to enhance growth control” (priority 2007, published 2008):

Columns and labels:
tomato = experiment: Tomato plant height, growth rate and leaf number, greenhouse (Example 5); assay type: in vivo, Tomato (variety: Rutgers); conditions: for Tomato leaf number (in words) / Tomato growth rate in terms of plant height (in words) / Tomato plant height (in words): PBI-429 25-200 ppm, trinexapac-ethyl 250-2000 ppm, alone or combined
From the text: The effect of ABA analog (PBI-429) and trinexapac-ethyl combinations on transpiration and growth inhibition of dicotyledonous (tomato) was also examined in the greenhouse condition. Tomato (variety: Rutgers) seeds were sown in 18-cell flat filled with Promix PGX (available from Premier Horticulture Inc. Quakertown, Pa.) and grown for 3 weeks to allow for germination and initial growth. Plants were then transplanted into pots (18 cm in diameter and 18 cm in height), filled with Promix BX (available from Premier Horticulture Inc. Quakertown, Pa.), and grown for one week before the chemical treatment. Plants received daily irrigation and weekly fertilizer (1 g/L all purpose fertilizer 20-20-20, available from The Scotts Company, Marysville, Ohio). During the chemical treatment, a 24 mL (4 mL/plant) solution was foliar sprayed on the tomato canopy. Leaf transpiration rates were measured using a LI-1600 Steady State Porometer (LI-Cor, Lincoln, Nebr.) at 3, 5, 7, 10, and 14 days after treatment. The leaf transpiration rate was normalized to the percentage of control plant to minimize the experimental errors caused by environmental factors. Plant height was measured at 0, 3, 5, 7, 10 and 14 days after treatment. The growth rate was calculated based on the changes of plant height in certain intervals. The plants were harvested and the leaf number was counted at 14 days after treatment.

creeping bentgrass [1] = experiment: Golf course green field study on creeping bentgrass with PBI-702: turfgrass height, soil moisture, turf quality (Example 3); assay type: in vivo, Penncross creeping bentgrass; conditions: for Soil moisture / Turfgrass height / Turf quality: 25 ppm trinexapac-ethyl alone; for Turf quality: visual 0-9 scale, 9 best
Description: (§1) Field studies were conducted at the nursery green or the practice green at Countryside golf course (Mundelein, Ill.). Both greens were sand based and growing Penncross creeping bentgrass. Grass was managed with typical Illinois golf course management practices.
Chemical solutions were prepared with distilled water. Tween 20 (0.05% v/v) was used as the surfactant when necessary. Trinexapac-ethyl (commercial product Primo Maxx, 11.3% active ingredient) was purchased from Syngenta Crop Protection Inc. (Greensboro, N.C.). ABA analogs, 8′ acetylene-ABA, acid (PBI-524), 8′ acetylene-ABA, ester (PBI-429), 8′ cyclopropane ester (PBI-696), or Tetralone, first carbon tail acetylene, ester (PBI-702), were obtained from Plant Biotechnology Institute, National Research Council of Canada (Saskatoon, Saskatchewan, Canada).
Chemical solutions were foliar applied to the turfgrass canopy at the rate of 4-gallons/1000 square foot (or 0.163 L/m^−2) immediately after finishing the preparation of solutions. After treatment, turfgrasses were arranged in a randomized complete block experimental design. Turfgrass quality, turfgrass height or clip fresh weight was measured on assigned dates. Turfgrass quality was visually rated on a 0-9 scale based on the color, uniformity, and density of the grass with 0 as the worst and 9 as the best. Turfgrass height was measured as the distance between canopy surface and soil. Clippings were collected form each plot; all plots were cut to a uniform height.
All experiments were randomized complete block experimental design. Data were analyzed by analysis of variance. Duncan's new multiple range tests at α=0.05 were used for mean separations.
Trinexapac-ethyl (25 ppm) or PBI-702 (50 ppm) were one time foliar applied alone or in combination to creeping bentgrass in the golf course green to investigate their effect on turfgrass quality, growth inhibition and soil moisture.

creeping bentgrass [2] = experiment: Golf course green field study on creeping bentgrass with PBI-696: growth rate, turfgrass quality (Example 4); assay type: in vivo, Penncross creeping bentgrass; conditions: 4 days after treatment, trinexapac-ethyl (25 ppm) alone
Description: as §1
Chemical solutions were prepared with distilled water. Tween 20 (0.05% v/v) was used as the surfactant when necessary. Trinexapac-ethyl (commercial product Primo Maxx, 11.3% active ingredient) was purchased from Syngenta Crop Protection Inc. (Greensboro, N.C.). […]
Chemical solutions were foliar applied to the turfgrass canopy at the rate of 4-gallons/1000 square foot (or 0.163 L/m^−2) immediately after finishing the preparation of solutions. […] Turfgrass quality, turfgrass height or clip fresh weight was measured on assigned dates. […] Turfgrass height was measured as the distance between canopy surface and soil. […]
All experiments were randomized complete block experimental design. Data were analyzed by analysis of variance. […]
Trinexapac-ethyl (25 ppm) and PBI-696 (5 or 50 ppm) were one time foliar applied in combination to creeping bentgrass in the golf course green. Turfgrass quality and growth rate were measured 4 days after treatment.

[3] = 25 ppm PBI-429, 3 days after treatment
[4] = 25 ppm PBI-429, 5 days after treatment
[5] = 25 ppm PBI-429, 7 days after treatment
[6] = 25 ppm PBI-429, 10 days after treatment
[7] = 25 ppm PBI-429, 14 days after treatment
[8] = 50 ppm PBI-429, 3 days after treatment
[9] = 50 ppm PBI-429, 5 days after treatment
[10] = 50 ppm PBI-429, 7 days after treatment
[11] = 50 ppm PBI-429, 10 days after treatment
[12] = 50 ppm PBI-429, 14 days after treatment
[13] = 100 ppm PBI-429, 3 days after treatment
[14] = 100 ppm PBI-429, 5 days after treatment
[15] = 100 ppm PBI-429, 7 days after treatment
[16] = 100 ppm PBI-429, 10 days after treatment
[17] = 100 ppm PBI-429, 14 days after treatment
[18] = 200 ppm PBI-429, 3 days after treatment
[19] = 200 ppm PBI-429, 5 days after treatment
[20] = 200 ppm PBI-429, 7 days after treatment
[21] = 200 ppm PBI-429, 10 days after treatment
[22] = 200 ppm PBI-429, 14 days after treatment
[23] = 250 ppm trinexapac-ethyl, 3 days after treatment
[24] = 250 ppm trinexapac-ethyl, 5 days after treatment
[25] = 250 ppm trinexapac-ethyl, 7 days after treatment
[26] = 250 ppm trinexapac-ethyl, 10 days after treatment
[27] = 250 ppm trinexapac-ethyl, 14 days after treatment
[28] = 500 ppm trinexapac-ethyl, 3 days after treatment
[29] = 500 ppm trinexapac-ethyl, 5 days after treatment
[30] = 500 ppm trinexapac-ethyl, 7 days after treatment
[31] = 500 ppm trinexapac-ethyl, 10 days after treatment
[32] = 500 ppm trinexapac-ethyl, 14 days after treatment
[33] = 1000 ppm trinexapac-ethyl, 3 days after treatment
[34] = 1000 ppm trinexapac-ethyl, 5 days after treatment
[35] = 1000 ppm trinexapac-ethyl, 7 days after treatment
[36] = 1000 ppm trinexapac-ethyl, 10 days after treatment
[37] = 1000 ppm trinexapac-ethyl, 14 days after treatment
[38] = 2000 ppm trinexapac-ethyl, 3 days after treatment
[39] = 2000 ppm trinexapac-ethyl, 5 days after treatment
[40] = 2000 ppm trinexapac-ethyl, 7 days after treatment
[41] = 2000 ppm trinexapac-ethyl, 10 days after treatment
[42] = 2000 ppm trinexapac-ethyl, 14 days after treatment

SMILES: C#CC1(C)CC(=O)C=C(C)C1(O)/C=C/C(C)=C\C(=O)OC (stereo not drawn) [PBI-429, 8′ acetylene-ABA, ester]
- Plant height (tomato; 25 ppm PBI-429, 0 days after treatment): 6.3 cm
- Growth rate (tomato; [3]): 0.8 cm/day
- Plant height (tomato; [3]): 8.6 cm
- Growth rate (tomato; [4]): 0.9 cm/day
- Plant height (tomato; [4]): 10.4 cm
- Growth rate (tomato; [5]): 1.2 cm/day
- Plant height (tomato; [5]): 12.8 cm
- Growth rate (tomato; [6]): 1.1 cm/day
- Plant height (tomato; [6]): 16.0 cm
- Growth rate (tomato; [7]): 1.2 cm/day
- Leaf number (tomato; [7]): 11.0
- Plant height (tomato; [7]): 20.7 cm
- Plant height (tomato; 50 ppm PBI-429, 0 days after treatment): 6.3 cm
- Growth rate (tomato; [8]): 0.6 cm/day
- Plant height (tomato; [8]): 8.8 cm
- Growth rate (tomato; [9]): 0.6 cm/day
- Plant height (tomato; [9]): 10.0 cm
- Growth rate (tomato; [10]): 0.8 cm/day
- Plant height (tomato; [10]): 11.6 cm
- Growth rate (tomato; [11]): 0.8 cm/day
- Plant height (tomato; [11]): 13.9 cm
- Growth rate (tomato; [12]): 1.1 cm/day
- Leaf number (tomato; [12]): 11.0
- Plant height (tomato; [12]): 18.2 cm
- Plant height (tomato; 100 ppm PBI-429, 0 days after treatment): 6.3 cm
- Growth rate (tomato; [13]): 0.6 cm/day
- Plant height (tomato; [13]): 8.4 cm
- Growth rate (tomato; [14]): 0.5 cm/day
- Plant height (tomato; [14]): 9.4 cm
- Growth rate (tomato; [15]): 0.7 cm/day
- Plant height (tomato; [15]): 10.8 cm
- Growth rate (tomato; [16]): 0.7 cm/day
- Plant height (tomato; [16]): 12.8 cm
- Growth rate (tomato; [17]): 0.9 cm/day
- Leaf number (tomato; [17]): 10.8
- Plant height (tomato; [17]): 16.2 cm
- Plant height (tomato; 200 ppm PBI-429, 0 days after treatment): 6.4 cm
- Growth rate (tomato; [18]): 0.5 cm/day
- Plant height (tomato; [18]): 7.9 cm
- Growth rate (tomato; [19]): 0.4 cm/day
- Plant height (tomato; [19]): 8.7 cm
- Growth rate (tomato; [20]): 0.5 cm/day
- Plant height (tomato; [20]): 9.6 cm
- Growth rate (tomato; [21]): 0.4 cm/day
- Plant height (tomato; [21]): 10.9 cm
- Growth rate (tomato; [22]): 0.7 cm/day
- Leaf number (tomato; [22]): 10.5
- Plant height (tomato; [22]): 13.8 cm
- Tomato leaf number (in words) (tomato; 14 days after treatment): only significantly reduced leaf number at the highest rate
- Tomato growth rate in terms of plant height (in words) (tomato): decreased tomato growth rate
- Tomato plant height (in words) (tomato): decreased tomato plant height

SMILES: CCOC(=O)C1CC(=O)C(=C(O)C2CC2)C(=O)C1 (stereo not drawn) [trinexapac-ethyl, reference compound]
- Soil moisture (creeping bentgrass [1]; 4 days after treatment): 11.2%
- Turfgrass height (creeping bentgrass [1]; 4 days after treatment): 7.3 mm
- Reducing growth or maintaining soil moisture (in words) (creeping bentgrass [1]; 4 days after treatment, trinexapac-ethyl 25 ppm, PBI-702 50 ppm, alone or combined): ineffective at reducing growth or maintaining soil moisture
- Soil moisture (creeping bentgrass [1]; 7 days after treatment): 12.7%
- Turfgrass height (creeping bentgrass [1]; 7 days after treatment): 6.5 mm
- Turf quality (creeping bentgrass [1]; 7 days after treatment): 7.3
- Reducing growth (in words) (creeping bentgrass [1]; 7 days after treatment, trinexapac-ethyl 25 ppm, PBI-702 50 ppm, alone or combined): effective at reducing growth
- Soil moisture (creeping bentgrass [1]; 38 days after treatment): 12.4%
- Turfgrass height (creeping bentgrass [1]; 38 days after treatment): 6.0 mm
- Turf quality (creeping bentgrass [1]; 38 days after treatment): 7.6
- Growth rate (creeping bentgrass [2]): 549 mg dry weight m^−2 day^−1
- Turfgrass quality (creeping bentgrass [2]; visual 0-9 scale, 9 best): 8.0
- Plant height (tomato; 250 ppm trinexapac-ethyl, 0 days after treatment): 6.4 cm
- Growth rate (tomato; [23]): 1.2 cm/day
- Plant height (tomato; [23]): 9.9 cm
- Growth rate (tomato; [24]): 1.0 cm/day
- Plant height (tomato; [24]): 11.9 cm
- Growth rate (tomato; [25]): 1.6 cm/day
- Plant height (tomato; [25]): 15.1 cm
- Growth rate (tomato; [26]): 1.5 cm/day
- Plant height (tomato; [26]): 19.6 cm
- Growth rate (tomato; [27]): 1.8 cm/day
- Leaf number (tomato; [27]): 11.0
- Plant height (tomato; [27]): 26.9 cm
- Plant height (tomato; 500 ppm trinexapac-ethyl, 0 days after treatment): 6.5 cm
- Growth rate (tomato; [28]): 0.9 cm/day
- Plant height (tomato; [28]): 9.3 cm
- Growth rate (tomato; [29]): 0.8 cm/day
- Plant height (tomato; [29]): 10.9 cm
- Growth rate (tomato; [30]): 1.2 cm/day
- Plant height (tomato; [30]): 13.3 cm
- Growth rate (tomato; [31]): 1.4 cm/day
- Plant height (tomato; [31]): 17.4 cm
- Growth rate (tomato; [32]): 1.8 cm/day
- Leaf number (tomato; [32]): 11.0
- Plant height (tomato; [32]): 24.4 cm
- Plant height (tomato; 1000 ppm trinexapac-ethyl, 0 days after treatment): 6.5 cm
- Growth rate (tomato; [33]): 0.7 cm/day
- Plant height (tomato; [33]): 8.9 cm
- Growth rate (tomato; [34]): 0.7 cm/day
- Plant height (tomato; [34]): 10.3 cm
- Growth rate (tomato; [35]): 1.0 cm/day
- Plant height (tomato; [35]): 12.3 cm
- Growth rate (tomato; [36]): 1.2 cm/day
- Plant height (tomato; [36]): 15.8 cm
- Growth rate (tomato; [37]): 1.8 cm/day
- Leaf number (tomato; [37]): 11.0
- Plant height (tomato; [37]): 22.8 cm
- Plant height (tomato; 2000 ppm trinexapac-ethyl, 0 days after treatment): 6.7 cm
- Growth rate (tomato; [38]): 0.6 cm/day
- Plant height (tomato; [38]): 7.9 cm
- Growth rate (tomato; [39]): 0.6 cm/day
- Plant height (tomato; [39]): 9.1 cm
- Growth rate (tomato; [40]): 0.8 cm/day
- Plant height (tomato; [40]): 10.7 cm
- Growth rate (tomato; [41]): 1.0 cm/day
- Plant height (tomato; [41]): 13.6 cm
- Growth rate (tomato; [42]): 1.2 cm/day
- Leaf number (tomato; [42]): 10.8
- Plant height (tomato; [42]): 18.3 cm
- Tomato leaf number (in words) (tomato; 14 days after treatment): did not change the tomato leaf number
- Tomato growth rate in terms of plant height (in words) (tomato): inhibited growth rate
- Tomato plant height (in words) (tomato): decreased tomato plant height
